Measurements: patent US20100115635A1, “Methods for Assessing the Delivery of Exogenous Agents” (Abbott Laboratories, priority 2007, published 2010)

System: MDA-tetR-ODC/Luc liver tumors
Assay: bioluminescence imaging of MDA-tetR-ODC/Luc liver tumors
Type: in vivo, mice
Settings: 4 days after doxycycline treatment
Description: A MDA-tetR-ODC/Luc cell line was created from MDA-MB435-SLM-derived cell line with a stably integrated tetR-ODC expression cassette and a tet-responsive firefly luciferase reporter. FIG. 6A). The MDA-tetR-ODC/Luc cells were inoculated into skid mice to establish liver tumors. The mice were imaged before doxycycline treatment (top panel of FIG. 6A) or 4 days after doxycycline treatment (bottom panel of FIG. 6A). […] FIG. 6B) Monitoring target knockdown in the MDA-tetR-ODC/Luc cell-derived liver tumors using imaging. The MDA-tetR-ODC/Luc cells were inoculated into skid mice to establish liver tumors. […] Mice were imaged before dosing and 2 days after the last dose. […] The mice were imaged before doxycycline treatment (top panel of FIG. 6B) or 4 days after doxycycline treatment (bottom panel of FIG. 6B).

**Q.** Which “increase of luminescent signal compared to untreated mice” value does the source give for `C[C@H]1c2cccc(O)c2C(=O)C2=C(O)[C@]3(O)C(=O)C(C(N)=O)=C(O)[C@@H](N(C)C)[C@@H]3[C@@H](O)[C@@H]21` [doxycycline] here?
**A.** Its value is “more than 100 fold”.
